Patent US12208090B2, “Compounds for use in treating depression and migraine” (Khondrion IP B.V., priority 2017, dated 2025)

Assays:
[1] = tested on: patients carrying the mutation m.3243A>G in the mitochondrial DNA; assay: Khenergy phase 2 trial: Beck Depression Inventory-II (BDI); type: in vivo, human
Text: (§1) The Khenergy trial (clinicaltrial.gov identifier NCT02909400) was a double blind, randomized, placebo-controlled, single-centre, two-way cross-over trial. Twenty patients, with a confirmed mitochondrial DNA tRNALeu(UUR) m.3243A>G mutation and with clinical signs of mitochondrial disease, were randomized over 2 groups (active or placebo first). After a screening period and a training session, each group had 2 dosing periods of 28 days, with a washout period of at least 28 days in between. On these occasions (i.e. during the dosing periods), patients received 100 mg KH176 twice daily (treatment A) or a matching placebo (treatment B) twice daily for 28 days. Clinical assessments were performed once in a training session prior to baseline, at baseline and in week 4 post dosing during each treatment phase (A and B). Testing conditions and circumstances, with respect to timing of the assessments, hospitalization and meals, were standardized for each assessment period. Furthermore, assessments of biomarkers for mitochondrial functioning, pharmacokinetics and specific safety assessments were performed weekly. Trial results have been published (Janssen, Koene, De Laat, et al., 2018)
The effect of KH176 on depression symptoms in patients carrying the mutation m.3243A>G in the mitochondrial DNA was evaluated with the Beck Depression Inventory-II (BDI) score and Hospital Anxiety and Depression Scale (HADS) during the Khenergy phase 2 clinical trial (clinicaltrial.gov identifier NCT02909400). […] This observation was supported by a positive trend in the Hospital Anxiety and Depression Scale (effect size, −1.9 (95% Cl, −3.6 to −0.2); P=0.03).

[2] = tested on: patients who suffer from chronic migraine; assay: Khenergy phase 2 trial: patient-reported migraine and headache; type: in vivo, human
Text: as §1
Two patients from the Khenergy Phase 2 clinical trial have spontaneously reported a decreased frequency of migraine event during the treatment period with KH176 (reported before unblinding of the study). A third patient retrospectively reported that they had more migraines during the placebo treatment period over the KH176 treatment period.

[3] = 100 mg KH176 twice daily for 28 days vs matching placebo, cross-over

## Cc1c(C)c2c(c(C)c1O)CC[C@@](C)(C(=O)N[C@@H]1CCCNC1)O2 [KH176]
[1]; [3]
  Beck Depression Affective Subscale, effect size, comparison KH176-Placebo: −1.1
  Beck Depression Inventory total score, effect size, comparison KH176-Placebo: −2.9
[1]; KHENERGY trial, mitochondrial disease patients
  effect on depression symptoms (in words): significantly reduce depression symptoms
[2]; KHENERGY trial, patients who previously chronically suffered from migraine, KH176 treatment period
  effect on migraine events (in words): reduction of the intensity and number of migraine events
[2]; Patient A, before: severe headaches every day, migraine 2 times a week
  headache during the 4 weeks of KH176: NO headache
[2]; patients of the trial who suffer from chronic migraine
  patients with a positive effect on migraine: 3 out of 3
